From patent publication US7189851B2, “Condensed heterocyclic compounds as calcitonin agonists” (SmithKline Beecham Corporation, priority 2002, dated 2007)

Molecular target: T1, human calcitonin-2 receptor (hCT2R) (Homo sapiens, UniProt P30988)
T1 construct: expressed in transfected cells; host or cells: Chinese hamster ovary (CHO) cells co-transfected with a 6CRE-luciferase reporter; receptor cDNA cloned from the MCF7 cell line
T1 sequence (P30988 25-474): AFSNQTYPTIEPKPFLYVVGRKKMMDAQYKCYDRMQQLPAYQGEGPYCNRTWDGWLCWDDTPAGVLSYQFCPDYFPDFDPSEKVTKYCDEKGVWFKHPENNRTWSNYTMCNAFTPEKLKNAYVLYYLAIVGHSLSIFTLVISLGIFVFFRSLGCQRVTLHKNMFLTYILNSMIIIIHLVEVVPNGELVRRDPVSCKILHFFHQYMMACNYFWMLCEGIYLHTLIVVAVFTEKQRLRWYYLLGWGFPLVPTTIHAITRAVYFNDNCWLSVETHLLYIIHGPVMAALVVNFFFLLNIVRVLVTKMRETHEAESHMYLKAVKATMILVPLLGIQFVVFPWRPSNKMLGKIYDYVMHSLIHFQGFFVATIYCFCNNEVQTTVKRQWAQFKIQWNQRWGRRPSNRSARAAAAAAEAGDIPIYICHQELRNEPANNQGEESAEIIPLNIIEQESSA
Test: HCT2R CRE-luc reporter assay
Type: cell-based
Details: agonist activity; CHO-6CRE-luciferase cells co-transfected with hCT2R
Protocol: The compounds of the present invention elicit important and measurable pharmacological responses. As is to be expected, the efficacy of any compound will vary depending upon the particular assay and the particular compound tested.
All recombinant cell line human calcitonin receptor assays were carried out with the human receptor corresponding to GeneBank Accession Number X69920, [See: Molecular Pharmacology 46 (2):246–255, 1994, Cloning and characterization of an abundant subtype of the human calcitonin receptor] cloned from the MCF7 cell line (American Type Tissue Collection, Manassas, Va., USA, Catalog # HTB-22). Human calcitonin receptor (hCT2R) was cloned as a HindIII fragment into plasmid BS SKII. Chinese hamster ovary cells were co-transfected with a 6CRE-luciferase reporter system and hCTR2. HEK cells were transfected with hCTR2.
CHO-6CRE-luciferase cells with or without co-expressed hCTR2 were grown in suspension in commercially available cell culture medium supplemented with 2 mM L-glutamine and 5% fetal bovine serum (FBS). Sixteen hours before each assay, cells were collected and resuspended at 1,000,000 cells/ml in media without FBS. Cells were cultured in spinner flasks at 37° C. in an atmosphere of 5% CO2. At the time of the assay, cells were pelleted by centrifugation and resuspended in media without FBS at a concentration of 250,000 cells/ml. The cell suspension was pipetted into black 96-well microtiter plates (25,000 cells/well) containing test compounds. After a four-hour incubation at 37° C., media was aspirated, followed by addition of 50 microliters of LucLite and PBS (1:1) containing 1 mM CaCl2 and 1 mM MgCl2. The plates were sealed and incubated for 20 minutes in the dark. Luminescent responses were measured using a Packard TopCount.
Structure activity studies were performed on CHO-6CRE-luciferase cells with or without co-transfected hCT2R. Forty-eight hours before each assay, cells were removed with trypsin and plated in 96-well microtiter plates at a concentration of 25–100,000 cells/well. Sixteen hours before each assay, FBS-containing media was removed and replaced with media without FBS. Compounds were added and incubated for four hours at 37° C. After incubation, media was aspirated and 50 microliters of LucLite in PBS (1:1) containing 1 mM CaCl2 and 1 mM MgCl2 were added to each well. Plates were sealed and incubated for 20 minutes in the dark before quantification of luminescence on a Packard TopCount.
Concentration-response curves were calculated and potencies were reported as the concentration of compounds producing half-maximal responses (EC50) or the negative log of the concentration of compounds producing half-maximal responses (pEC50).

First: CCOC(=O)c1c(CCc2ccc(F)cc2)nc2c(c1-c1ccc(C(=O)NCc3ccco3)s1)c(=O)n1n2CCC1 [Example 9, Ethyl 2-[2-(4-fluorophenyl)ethyl]-4-(5-{[(2-furylmethyl)amino]carbonyl}-2-thienyl)-5-oxo-8,9-dihydro-5H,7H-pyrazolo[1′,2′:1,2]pyrazolo[3,4-b]pyridine-3-carboxyl]
Second: CCOC(=O)c1c(CCc2ccc(F)cc2)nc2c(c1-c1ccc(C)cc1)C(=O)N1CCC[C@@H]21 [Example 40, Ethyl (9aS)-2-[2-(4-fluorophenyl)ethyl]-4-(4-methylphenyl)-5-oxo-7,8,9,9a-tetrahydro-5H-pyrido[2,3-α]pyrrolizine-3-carboxylate]
The EC50 of the first is lower: at most 10 nM for the first, 100 to 1000 nM for the second. The first is the more potent here.

“Ethyl (9aS)-4-(4-{[(2-furylmethyl)amino]carbonyl}phenyl)-5-oxo-2-[2-(3-pyridinyl)ethyl]-7,8,9,9a-tetrahydro-5H-pyrido[2,3-α]pyrrolizine-3-carboxylate [Example 33]” and “Ethyl (9αS)-4-{4-[(benzylamino)carbonyl]phenyl}-5-oxo-2-{2-[4-(trifluoro-methyl)phenyl]ethyl}-9,9a-dihydro-5H-[1,3]oxazolo[3′,4′:1,2]pyrrolo[3,4-b]pyridine-3-carboxylate [Example 36]” fall in the same range of EC50: 10 to 100 nM for the first, 10 to 100 nM for the second.

`O=C(NCc1ccco1)c1ccc(-c2cc(CCc3ccc(C(F)(F)F)cc3)nc3c2C(=O)N2CCC[C@@H]32)cc1` [Example 14, 4-((9aS)-5-oxo-2-{2-[4-(trifluromethyl)phenyl]ethyl}-7,8,9,9a-tetrahydro-5H-pyrido[2,3-a]pyrrolizin-4-yl)-N-(2-furylmethyl)benzamide] and `CCOC(=O)c1c(Cc2ccc(F)cc2)nc2c(c1-c1cc(C(=O)NCCc3cccs3)cc(C(F)(F)F)c1)C(=O)N1CCC[C@@H]21` [Example 54, Ethyl (9aS)-2-(4-fluorobenzyl)-5-oxo-4-[3-({[2-(2-thienyl)ethyl]amino}carbonyl)-5-(trifluoromethyl)phenyl]-7,8,9,9a-tetrahydro-5H-pyrido[2,3-α]pyrrolizine-3-carboxylate] cannot be ordered by EC50: 100 to 1000 nM for the first, at least 1000 nM for the second.

First: CCOC(=O)c1c(Cc2ccc(F)cc2F)nc2c(c1-c1ccc(C(=O)NCc3ccco3)cc1)C(=O)N1CCC[C@@H]21 [Example 6, Ethyl (9aS)-2-(2,4-difluorobenzyl)-4-(4-{[(2-furylmethyl)amino]carbonyl}phenyl)-5-oxo-7,8,9,9a-tetrahydro-5H-pyrido[2,3-α]pyrrolizine-3-carboxylate]
Second: O=C(NCc1ccco1)c1ccc(-c2c(NC(=O)C3CCCC3)c(CCc3ccc(C(F)(F)F)cc3)nc3c2C(=O)N2CCC[C@@H]32)cc1 [Example 24, 4-((9aS)-3-[(Cyclopentylcarbonyl)amino]-5-oxo-2-{2-[4-(trifluoromethyl)phenyl]ethyl}-7,8,9,9a-tetrahydro-5H-pyrido[2,3-a]pyrrolizin-4-yl)-N-(2-furylmethyl)benzamide]
The EC50 of the first is lower: 10 to 100 nM for the first, 100 to 1000 nM for the second. The first is the more potent here.

Going from `CCOC(=O)c1c(CCc2ccc(F)cc2)nc2c(c1-c1cc(C(=O)NC3CCc4ccccc43)cs1)C(=O)N1CCC[C@@H]21` (stereo partly drawn) [Example 15, Ethyl(9aS)-4-{4-[(2,3-dihydro-1H-inden-1-ylamino)carbonyl]-2-thieny}-2-[2-(4-fluorophenyl)ethyl]-5-oxo-7,8,9,9a-tetrahydro-5H-pyrido[2,3-a]pyrrolizine-3-carboxylate] to `O=C(N[C@@H]1CCc2ccccc21)c1ccc(-c2c3c(nc4c2C(=O)N2CCC[C@@H]42)CC(c2ccc(F)cc2)CC3=O)cc1` (stereo partly drawn) [Example 32, 4-[(3aS)-6-(4-Fluorophenyl)-8,10-dioxo-2,3,3a,5,6,7,8,10-octahydro-1H-pyrrolizino[1,2-b]quinolin-9-yl]-N-[(1R)-2,3-dihydro-1H-inden-1-yl]benzamide], the EC50 rises from at most 10 nM to at least 1000 nM. The first is the more potent here.

`CCOC(=O)c1c(CCc2ccc(C(F)(F)F)cc2)nc2c(c1C1CC1C(=O)NCc1ccccc1)C(=O)N1CCC[C@@H]21` (stereo partly drawn) [Example 3, Ethyl (9aS)-4-{2-[(benzylamino)carbonyl]cyclopropyl}-5-oxo-2-{2-[4-(trifluoromethyl)phenyl]ethyl}-7,8,9,9a-tetrahydro-5H-pyrido[2,3-a]pyrrolizine-3-carboxylate] and `CCOC(=O)c1c(Cc2ccc(F)cc2)nc2c(c1-c1ccc(CNC(=O)c3ccccc3)s1)C(=O)N1CCC[C@@H]21` [Example 46, Ethyl (9aS)-4-{5-[(benzoylamino)methyl]-2-thienyl}-2-(4-fluorobenzyl)-5-oxo-7,8,9,9a-tetrahydro-5H-pyrido[2,3-α]pyrrolizine-3-carboxylate] fall in the same range of EC50: 100 to 1000 nM for the first, 100 to 1000 nM for the second.

`CCOC(=O)c1c(CCc2ccc(F)cc2)nc2c(c1-c1ccc(C(=O)N[C@@H](C)c3ccncc3)c(F)c1)C(=O)N1CCC[C@@H]21` [Example 52, Ethyl (9aS)-2-[2-(4-fluorophenyl)ethyl]-4-[3-fluoro-4-({[(1S)-1-(4-pyridinyl)ethyl]amino}carbonyl)phenyl]-5-oxo-7,8,9,9a-tetrahydro-5H-pyrido[2,3-α]pyrrolizine-3-carboxylate] and `CCOC(=O)c1c(CCc2ccc(F)cc2)nc2c(c1-c1ccc(C(=O)N[C@@H]3CCc4ccccc43)s1)C(=O)N1CCC[C@@H]21` [Example 18, Ethyl(9aS)-4-(5-{[(1R)-2,3-dihydro-1H-inden-1-ylamino]carbonyl}-2-thienyl)-2-[2-(4-fluorophenyl)ethyl]-5-oxo-7,8,9,9a-tetrahydro-5H-pyrido[2,3-a]pyrrolizine-3-carboxylate] cannot be ordered by EC50: 10 to 100 nM for the first, at most 10 nM for the second.

`CCOC(=O)c1c(CCc2ccc(F)cc2)nc2c(c1-c1cc(Br)cs1)C(=O)N1CCC[C@@H]21` [Example 56, Ethyl (9aS)-4-(4-bromo-2-thienyl)-2-[2-(4-fluorophenyl)ethyl]-5-oxo-7,8,9,9a-tetrahydro-5H-pyrido[2,3-α]pyrrolizine-3-carboxylate] and “Ethyl (9aS)-4-(4-{[(2-furylmethyl)amino]carbonyl}phenyl)-5-oxo-2-{2-[4-(trifluoromethyl)phenyl]ethyl}-7,8,9,9a-tetrahydro-5H-pyrido[2,3-α]pyrrolizine-3-carboxylate-N-oxide [Example 38]” fall in the same range of EC50: 100 to 1000 nM for the first, 100 to 1000 nM for the second.

First: Ethyl(9aS)-4-[3-({[2-(2-furyl)ethyl]amino}carbonyl)phenyl]-5-oxo-2-{2-[4-(trifluoromethyl)phenyl]ethyl}-7,8,9,9a-tetrahydro-5H-pyrido[2,3-a]pyrrolizine-3-carboxylate [Example 13]
Second: CCOC(=O)c1c(CCC(F)(F)F)nc2c(c1-c1ccc(C(=O)N[C@@H]3CCc4ccccc43)cc1)C(=O)N1CCC[C@@H]21 [Example 44, Ethyl (9aS)-4-(4-{[(1R)-2,3-dihydro-1H-inden-1-ylamino]carbonyl}phenyl)-5-oxo-2-(3,3,3-trifluoropropyl)-7,8,9,9a-tetrahydro-5H-pyrido[2,3-α]pyrrolizine-3-carboxylate]
The EC50 of the first is higher: at least 1000 nM for the first, 10 to 100 nM for the second. The second is the more potent here.

Compound `CCOC(=O)c1c(CCc2ccc(C(F)(F)F)cc2)nc2c(c1-c1nc(C(=O)N[C@@H]3CCc4ccccc43)co1)c(=O)n1n2CCC1` [Example 21, Ethyl 4-(4-{[(1R)-2,3-dihydro-1H-inden-1-ylamino]carbonyl}-1,3-oxazol-2-yl)-5-oxo-2-{2-[4-(trifluoromethyl)phenyl]ethyl}-8,9-dihydro-5H,7H-pyrazolo[1′, 2′:1,2]pyrazolo[3,4-b]pyridine-3-carboxylate] has an EC50 of 10 to 100 nM.
